Key:
Conditions in all cases: 72 h
U2OS [1] = assay: GR50 (concentration giving GR = 0.5)
Experimental: (§1)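 U2OS cells treated with full dose titrations of drug; live and dead cells counted by STACK microscopy (mKate2 nuclei, SYTOX Green) at 72 h, biological triplicates. GR and FV dose responses were fitted with 4-parameter logistic models (GR lower bound -1). GRADE (0-100) is the rescaled angle of a linear fit of FV versus GR at doses with GR >= 0, giving the percentage of the response due to cell death.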

U2OS [2] = assay: fractional viability (live cells / total cells); higher = less cell death
Experimental: (§2)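 U2OS::Nuc-mKate2 cells seeded in 96-well plates and treated with eight- to ten-point half-log or log dilutions of drug in the presence of 50 nM SYTOX Green. Live (mKate2+) and dead (SYTOX+) cells were counted by IncuCyte STACK live-cell microscopy at 72 h; biological triplicates. GR is the normalised growth-rate inhibition value (Hafner 2016; 1 = untreated growth, <0 = population shrinking). FV is live/(live+dead) cells, not normalised.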

U2OS [3] = assay: FV IC50 (concentration giving fractional viability 0.5); higher = less potent killing
Experimental: as §1

U2OS [4] = assay: drug GRADE (percent of response due to cell death) (% (0-100)); higher = more death-driven response
Experimental: as §1

U2OS [5] = assay: GRmin (fitted minimal GR value at highest effect) (GR value (dimensionless)); higher = less efficacious
Experimental: as §1

U2OS [6] = assay: normalized growth rate inhibition value (GR) relative to untreated cells (GR value (dimensionless, 1 = untreated growth)); higher = less growth inhibition
Experimental: as §2

SMILES: CC[C@@]1(O)C(=O)OCc2c1cc1n(c2=O)Cc2cc3ccccc3nc2-1 [Camptothecin]
- GR50 (U2OS [1]): 0.00513 µM
- fractional viability (U2OS [2]; 0.001 µM): 0.969
- fractional viability (U2OS [2]; 0.00316 µM): 0.949
- fractional viability (U2OS [2]; 0.01 µM): 0.91
- fractional viability (U2OS [2]; 0.0316 µM): 0.898
- fractional viability (U2OS [2]; 0.1 µM): 0.869
- fractional viability (U2OS [2]; 0.316 µM): 0.661
- fractional viability (U2OS [2]; 1 µM): 0.448
- fractional viability (U2OS [2]; 3.16 µM): 0.213
- FV IC50 (U2OS [3]): 761 nM
- drug GRADE (U2OS [4]): 25.1
- GRmin (U2OS [5]): -0.368
- normalized growth rate inhibition value (U2OS [6]; 0.001 µM): 0.83
- normalized growth rate inhibition value (U2OS [6]; 0.00316 µM): 0.651
- normalized growth rate inhibition value (U2OS [6]; 0.01 µM): 0.219
- normalized growth rate inhibition value (U2OS [6]; 0.0316 µM): 0.0844
- normalized growth rate inhibition value (U2OS [6]; 0.1 µM): 0.0979
- normalized growth rate inhibition value (U2OS [6]; 0.316 µM): -0.0587
- normalized growth rate inhibition value (U2OS [6]; 1 µM): -0.211
- normalized growth rate inhibition value (U2OS [6]; 3.16 µM): -0.411

SMILES: CC(C)C[C@H](NC(=O)[C@H](Cc1ccccc1)NC(=O)c1cnccn1)B(O)O [Bortezomib]
- GR50 (U2OS [1]): 0.0115 µM
- fractional viability (U2OS [2]; 0.01 µM): 0.919
- fractional viability (U2OS [2]; 0.0316 µM): 0.432
- fractional viability (U2OS [2]; 0.1 µM): 0.00995
- fractional viability (U2OS [2]; 0.316 µM): 0.00177
- fractional viability (U2OS [2]; 1 µM): 0.00348
- fractional viability (U2OS [2]; 3.16 µM): 0.00249
- fractional viability (U2OS [2]; 10 µM): 0.00121
- fractional viability (U2OS [2]; 31.6 µM): 0.000942
- FV IC50 (U2OS [3]): 29.4 nM
- drug GRADE (U2OS [4]): 17.4
- GRmin (U2OS [5]): -0.899
- normalized growth rate inhibition value (U2OS [6]; 0.01 µM): 0.572
- normalized growth rate inhibition value (U2OS [6]; 0.0316 µM): -0.293
- normalized growth rate inhibition value (U2OS [6]; 0.1 µM): -0.811
- normalized growth rate inhibition value (U2OS [6]; 0.316 µM): -0.912
- normalized growth rate inhibition value (U2OS [6]; 1 µM): -0.874
- normalized growth rate inhibition value (U2OS [6]; 3.16 µM): -0.887
- normalized growth rate inhibition value (U2OS [6]; 10 µM): -0.913
- normalized growth rate inhibition value (U2OS [6]; 31.6 µM): -0.902

SMILES: NC(=O)Nc1cc(-c2cccc(F)c2)sc1C(=O)N[C@H]1CCCNC1 [AZD7762]
- GR50 (U2OS [1]): 0.11 µM
- fractional viability (U2OS [2]; 0.00100578 µM): 0.991
- fractional viability (U2OS [2]; 0.00317827 µM): 0.992
- fractional viability (U2OS [2]; 0.0100433 µM): 0.992
- fractional viability (U2OS [2]; 0.0317369 µM): 0.988
- fractional viability (U2OS [2]; 0.100289 µM): 0.894
- fractional viability (U2OS [2]; 0.316912 µM): 0.548
- fractional viability (U2OS [2]; 1.00144 µM): 0.398
- fractional viability (U2OS [2]; 3.16456 µM): 0.0972
- fractional viability (U2OS [2]; 10 µM): 0.0629
- FV IC50 (U2OS [3]): 510 nM
- drug GRADE (U2OS [4]): 20
- GRmin (U2OS [5]): -0.614
- normalized growth rate inhibition value (U2OS [6]; 0.00100578 µM): 1.04
- normalized growth rate inhibition value (U2OS [6]; 0.00317827 µM): 1.04
- normalized growth rate inhibition value (U2OS [6]; 0.0100433 µM): 1.19
- normalized growth rate inhibition value (U2OS [6]; 0.0317369 µM): 1.12
- normalized growth rate inhibition value (U2OS [6]; 0.100289 µM): 0.423
- normalized growth rate inhibition value (U2OS [6]; 0.316912 µM): -0.126
- normalized growth rate inhibition value (U2OS [6]; 1.00144 µM): -0.318
- normalized growth rate inhibition value (U2OS [6]; 3.16456 µM): -0.622
- normalized growth rate inhibition value (U2OS [6]; 10 µM): -0.718

SMILES: Nc1cc(C(F)(F)F)c(-c2cc(N3CCOCC3)nc(N3CCOCC3)n2)cn1 [Buparlisib]
- GR50 (U2OS [1]): 0.439 µM
- fractional viability (U2OS [2]; 0.00100578 µM): 0.986
- fractional viability (U2OS [2]; 0.00317827 µM): 0.984
- fractional viability (U2OS [2]; 0.0100433 µM): 0.986
- fractional viability (U2OS [2]; 0.0317369 µM): 0.986
- fractional viability (U2OS [2]; 0.100289 µM): 0.985
- fractional viability (U2OS [2]; 0.316912 µM): 0.976
- fractional viability (U2OS [2]; 1.00144 µM): 0.868
- fractional viability (U2OS [2]; 3.16456 µM): 0.558
- fractional viability (U2OS [2]; 10 µM): 0.404
- FV IC50 (U2OS [3]): 4100 nM
- drug GRADE (U2OS [4]): 15.2
- GRmin (U2OS [5]): -0.554
- normalized growth rate inhibition value (U2OS [6]; 0.00100578 µM): 0.914
- normalized growth rate inhibition value (U2OS [6]; 0.00317827 µM): 0.956
- normalized growth rate inhibition value (U2OS [6]; 0.0100433 µM): 0.959
- normalized growth rate inhibition value (U2OS [6]; 0.0317369 µM): 0.899
- normalized growth rate inhibition value (U2OS [6]; 0.100289 µM): 0.77
- normalized growth rate inhibition value (U2OS [6]; 0.316912 µM): 0.704
- normalized growth rate inhibition value (U2OS [6]; 1.00144 µM): 0.0802
- normalized growth rate inhibition value (U2OS [6]; 3.16456 µM): -0.224
- normalized growth rate inhibition value (U2OS [6]; 10 µM): -0.493

SMILES: COc1cccc2c1C(=O)c1c(O)c3c(c(O)c1C2=O)C[C@@](O)(C(=O)CO)C[C@@H]3O[C@H]1C[C@H](N)[C@H](O)[C@H](C)O1 [Doxorubicin]
- GR50 (U2OS [1]): 0.0332 µM
- fractional viability (U2OS [2]; 0.00100578 µM): 0.987
- fractional viability (U2OS [2]; 0.00317827 µM): 0.99
- fractional viability (U2OS [2]; 0.0100433 µM): 0.989
- fractional viability (U2OS [2]; 0.0317369 µM): 0.971
- fractional viability (U2OS [2]; 0.100289 µM): 0.967
- fractional viability (U2OS [2]; 0.316912 µM): 0.978
- fractional viability (U2OS [2]; 1.00144 µM): 0.851
- fractional viability (U2OS [2]; 3.16456 µM): 0.113
- fractional viability (U2OS [2]; 10 µM): 0
- FV IC50 (U2OS [3]): 2590 nM
- drug GRADE (U2OS [4]): 3.78
- GRmin (U2OS [5]): -0.576
- normalized growth rate inhibition value (U2OS [6]; 0.00100578 µM): 0.879
- normalized growth rate inhibition value (U2OS [6]; 0.00317827 µM): 1.06
- normalized growth rate inhibition value (U2OS [6]; 0.0100433 µM): 0.832
- normalized growth rate inhibition value (U2OS [6]; 0.0317369 µM): 0.368
- normalized growth rate inhibition value (U2OS [6]; 0.100289 µM): 0.0816
- normalized growth rate inhibition value (U2OS [6]; 0.316912 µM): 0.0197
- normalized growth rate inhibition value (U2OS [6]; 1.00144 µM): -0.0749
- normalized growth rate inhibition value (U2OS [6]; 3.16456 µM): -0.501
- normalized growth rate inhibition value (U2OS [6]; 10 µM): -1

SMILES: Nc1ccccc1NC(=O)c1ccc(CNC(=O)OCc2cccnc2)cc1 [Entinostat]
- GR50 (U2OS [1]): 2.84 µM
- fractional viability (U2OS [2]; 0.01 µM): 0.979
- fractional viability (U2OS [2]; 0.0316 µM): 0.97
- fractional viability (U2OS [2]; 0.1 µM): 0.973
- fractional viability (U2OS [2]; 0.316 µM): 0.964
- fractional viability (U2OS [2]; 1 µM): 0.933
- fractional viability (U2OS [2]; 3.16 µM): 0.814
- fractional viability (U2OS [2]; 10 µM): 0.201
- fractional viability (U2OS [2]; 31.6 µM): 0.0216
- FV IC50 (U2OS [3]): 5800 nM
- drug GRADE (U2OS [4]): 42.5
- GRmin (U2OS [5]): -0.906
- normalized growth rate inhibition value (U2OS [6]; 0.01 µM): 0.972
- normalized growth rate inhibition value (U2OS [6]; 0.0316 µM): 0.969
- normalized growth rate inhibition value (U2OS [6]; 0.1 µM): 0.929
- normalized growth rate inhibition value (U2OS [6]; 0.316 µM): 0.883
- normalized growth rate inhibition value (U2OS [6]; 1 µM): 0.741
- normalized growth rate inhibition value (U2OS [6]; 3.16 µM): 0.504
- normalized growth rate inhibition value (U2OS [6]; 10 µM): -0.304
- normalized growth rate inhibition value (U2OS [6]; 31.6 µM): -0.726

Source: the supplement of paper PMC7394473
